# Data as given in patent EP4656642A1, “ESTROGEN RECEPTOR PROTEOLYSIS TARGETING CHIMERA COMPOUND AND USE THEREOF” (GAN & LEE PHARM CO., LTD, priority 2023, dated 2024).
# What was measured:
# Assay type in all cases: cell-based
# MCF-7 cells = test: Inhibition of cell proliferation of MCF-7 cells (CCK-8, 9 days)
# How it was run: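 Read-out was CCK-8 viability after 9-day continuous exposure (37°C, 5% CO2) of MCF-7 cells plated at 800/well in 10% FBS DMEM across several compound concentrations. Values are proliferation IC50s.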
# T-47D cells = test: Inhibition of cell proliferation in T-47D cells (CCK-8, 6 days); conditions: 6 days of treatment
# How it was run: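 Viability read-out was CCK-8 after 6 days of compound treatment (37 °C, 5% CO2) across graded concentrations. Cells were T-47D seeded at 3,000 per well in 1640 medium plus 10% FBS. IC50 was calculated against proliferation.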
# ERα [1] = target: T1, ERα (Homo sapiens, UniProt P03372); test: Degradation of ERα in MCF-7 cells (immunoblotting, 4 h)
# T1 sequence (P03372 1-595): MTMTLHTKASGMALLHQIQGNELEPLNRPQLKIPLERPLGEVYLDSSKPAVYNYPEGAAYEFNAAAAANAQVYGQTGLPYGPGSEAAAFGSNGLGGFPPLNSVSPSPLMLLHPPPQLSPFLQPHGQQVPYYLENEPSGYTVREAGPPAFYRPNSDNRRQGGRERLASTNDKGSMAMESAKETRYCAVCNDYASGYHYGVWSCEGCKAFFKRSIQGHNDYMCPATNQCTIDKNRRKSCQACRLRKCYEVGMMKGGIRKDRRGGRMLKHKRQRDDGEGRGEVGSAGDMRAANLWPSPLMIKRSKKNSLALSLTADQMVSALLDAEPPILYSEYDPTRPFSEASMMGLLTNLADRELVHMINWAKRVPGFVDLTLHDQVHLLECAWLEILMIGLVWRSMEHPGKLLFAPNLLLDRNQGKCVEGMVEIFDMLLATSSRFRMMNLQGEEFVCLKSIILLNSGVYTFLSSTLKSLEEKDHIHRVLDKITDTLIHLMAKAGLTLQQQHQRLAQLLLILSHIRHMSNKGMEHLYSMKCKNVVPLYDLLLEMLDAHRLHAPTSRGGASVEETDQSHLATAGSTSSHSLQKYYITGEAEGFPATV
# How it was run: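 Degradation rate reflects ERα band intensity, corrected to an internal reference protein, relative to control. Values come from Western blotting of lysates from MCF-7 cells exposed 4 h at 37°C to compounds at final concentrations of 0.15-1000nM.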
# ERα [2] = target: T1, ERα; test: Degradation of ERα in T-47D cells (immunoblotting, 4 h); set-up: host or cells: T-47D
# How it was run: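 ERα protein levels were assessed by immunoblot of RIPA lysates (with protease inhibitor) after 4 h exposure at 37°C. Compound was added in DMSO to T-47D cells at final concentrations of 0.15-1000 nM.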
# [3] = treated for 9 days, CCK-8 kit (Table 6)
Structure (SMILES),IC50 (MCF-7 cells; [3]),IC50 (T-47D cells; Table 3),Degradation rate (%) of ERα in MCF-7 cells (ERα [1]; 1nM compound),Degradation rate (%) of ERα in MCF-7 cells (ERα [1]; 10nM compound),Degradation rate (%) of ERα in T-47D cells (ERα [2]; 1nM compound),Degradation rate (%) of ERα in T-47D cells (ERα [2]; 10nM compound),"IC50 (MCF-7 cells; 9 days of treatment, CCK-8, Table 5)",IC50 (T-47D cells; Table 2)
CC1CN(C(=O)C2CCN(c3ccc(C4c5ccc(O)cc5CCC4c4ccccc4)cc3)CC2)CCC1N1CCC2(CC1)COc1c2ccc2c1CN(C1CCC(=O)NC1=O)C2=O (stereo not drawn) [K23],5.67 nM,1.04 nM,57%,78%,61%,86%,,
O=C1CCC(N2Cc3cc4c(cc3C2=O)CCC2(CN(C(=O)C3CC5(CCN(c6ccc([C@@H]7c8ccc(O)cc8CC[C@@H]7c7ccccc7)cc6)CC5)C3)C2)O4)C(=O)N1 (stereo partly drawn) [A48],7440 nM,12.3 nM,4%,11%,-37%,23%,,
CCN(CC(=O)N1CCC2(CC1)COc1c2ccc2c1CN(C1CCC(=O)NC1=O)C2=O)CC1CCN(c2ccc([C@@H]3c4ccc(O)cc4CC[C@@H]3c3ccccc3)cc2)CC1 (stereo partly drawn) [J12],1940 nM,1.1 nM,60%,53%,68%,86%,,
O=C1CCC(N2C(=O)c3cc4c(cc3C2=O)C2(CCN(C3CC5(CCN(c6ccc([C@@H]7c8ccc(O)cc8CC[C@@H]7c7ccccc7)cc6)CC5)C3)CC2)CO4)C(=O)N1 (stereo partly drawn) [A34],174 nM,68 nM,4%,13%,5%,28%,,
O=C1CCC(N2Cc3cc4c(cc3C2=O)OC2(CC4)CN(C3CCC4(CC3)CN(c3ccc(C5c6ccc(O)cc6CCC5c5ccccc5)cc3)C4)C2)C(=O)N1 (stereo not drawn) [B8],6.57 nM,31 nM,,16%,,33%,90 nM,2.9 nM
CCN(CC1CCN(c2ccc([C@@H]3c4ccc(O)cc4CC[C@@H]3c3ccccc3)cc2)CC1)[C@H]1CC[C@@H](C(=O)N2CCC3(CC2)COc2c3ccc3c2CN(C2CCC(=O)NC2=O)C3=O)CC1 (stereo partly drawn) [N8],25400 nM,6.6 nM,-2%,31%,21%,55%,,
O=C1CCC(N2Cc3cc4c(cc3C2=O)OC2(CC4)CN(CC3CCN(c4ccc([C@@H]5c6ccc(O)cc6CC[C@@H]5c5ccccc5)cc4)CC3)C2)C(=O)N1 (stereo partly drawn) [H3],2410 nM,200 nM,-20%,-37%,-43%,-56%,,
C[C@@H]1C[C@H](N2CCC3(CC2)COc2c3ccc3c2CN(C2CCC(=O)NC2=O)C3=O)CCN1C1CC2(CCN(c3ccc([C@@H]4c5ccc(O)cc5CC[C@@H]4c4ccccc4)cc3)CC2)C1 (stereo partly drawn) [H30],0.115 nM,5.78 nM,-1%,62%,37%,74%,,
CN(CC(=O)N1CCC2(CC1)COc1c2ccc2c1C(=O)N(C1CCC(=O)NC1=O)C2=O)C1CCC2(CC1)CN(c1ccc([C@@H]3c4ccc(O)cc4CC[C@@H]3c3ccccc3)cc1)C2 (stereo partly drawn) [C19],23100 nM,14.7 nM,15%,45%,32%,65%,,
CC1CN(C2CC3(CCN(c4ccc([C@@H]5c6ccc(O)cc6CC[C@@H]5c5ccccc5)cc4)CC3)C2)CCC1N1CCC2(CC1)COc1c2ccc2c1CN(C1CCC(=O)NC1=O)C2=O (stereo partly drawn) [K20],19.6 nM,2.59 nM,37%,70%,4%,44%,,
C[C@@H]1Cc2c(ccc3[nH]ncc23)C(c2ccc(N3CCC4(CCN(C(=O)CN5CCC6(CC5)COc5c6ccc6c5CN(C5CCC(=O)NC5=O)C6=O)CC4)CC3)cn2)N1CC(F)(F)F (stereo partly drawn) [J15],22000 nM,3.49 nM,33%,66%,49%,80%,,
O=C1CCC(N2Cc3c(ccc4c3OC3(CC4)CCN(C4CCN(C5CN(c6ccc([C@@H]7c8ccc(O)cc8CC[C@@H]7c7ccccc7)cc6)C5)CC4)CC3)C2=O)C(=O)N1 (stereo partly drawn) [A60],825 nM,18.3 nM,-31%,-14%,11%,-1%,,
C[C@@H]1Cc2c([nH]c3ccccc23)[C@@H](c2c(F)cc(N3CC4(CCC(N5CCC6(CC5)COc5c6ccc6c5CN(C5CCC(=O)NC5=O)C6=O)CC4)C3)cc2F)N1CC(F)F (stereo partly drawn) [A104],30.3 nM,17.1 nM,15%,70%,35%,72%,,
O=C1CCC(N2Cc3cc4c(cc3C2=O)CCC2(CN(C(=O)[C@H]3CC[C@H](CN5CCN(c6ccc([C@@H]7c8ccc(O)cc8CC[C@@H]7c7ccccc7)cc6)CC5)CC3)C2)O4)C(=O)N1 (stereo partly drawn) [C7],84.7 nM,1.75 nM,38%,63%,45%,74%,,
O=C1CCC(N2Cc3c(ccc4c3OCC43CCN(C(=O)CN4CC[C@]5(CCN(c6ccc([C@@H]7c8ccc(O)cc8CC[C@@H]7c7ccccc7)cc6)C5)C4)CC3)C2=O)C(=O)N1 (stereo partly drawn) [H21],163 nM,1.02 nM,18%,37%,35%,65%,,
